According to patent publication US20230139883A1, “Peptides for Inducing Differentiation” (Shimadzu Corporation, priority 2020, published 2023):

Legend:
iPS-hFB [1] = assay: Differentiation induction of iPS cells into neurons: RT-qPCR of SYN1, MAP2 and Nr2f1; assay type: cell-based; details: for Nr2f1 gene expression level: 0.25 nM peptide on Day 3, Day 35
Protocol: An attempt to apply 100nX to a differentiation induction system from iPS cells to neurons was made. […] A group in which G-MEM supplemented with 20% KSR (Thermo), 1xNEAA (Thermo), 0.1 mM 2-mercaptoethanol (Wako Pure Chemicals), 1 mM sodium pyruvate (Thermo), 20 μM Y27632 (Wako Pure Chemicals), 3 μM IWR-1-endo (Wako Pure Chemicals), 5 μM SB431542 (Wako Pure Chemicals) was added at 100 μL/well was prepared as a control group (FIG. 14, protocol 2). On Day 6, the entire medium was replaced with the medium of each condition containing no Y27632 (Wako Pure Chemicals). Likewise, the medium was exchanged at Day 10 and Day 14. The medium was removed on Day 18 and the cells added with DMEM/F12 (GlutaMax) (Thermo) containing 1% N-2 Supplement and 1% Chemically Defined Lipid Concentrate were transferred to EZSPHERE (AGC Technoglass) at 2 mL/well. On Day 21, 24, and 27, the medium was replaced with DMEM/F12 (GlutaMax) (Thermo) containing 1% N-2 Supplement. Further, On Day 30, and 33, the medium was replaced with DMEM/F12 (GlutaMax) (Thermo) containing 1% N-2 Supplement and 1% Chemically Defined Lipid Concentrate.

iPS-hFB [2] = assay: Differentiation induction of iPS cells into cardiomyocytes: observation of beating cell clusters; details: Example 3: 0.05 μM peptide + Activin A on Day 1, no bFGF
FGFR = assay: Binding to FGFR by surface plasmon resonance (Biacore T200); details: SPR, 25° C., FGFR1, FGFR2 or FGFR3 immobilized (FIG. 4)
Text: One clone was selected from the amino acid sequences of the clones obtained above, and the peptide of 100nX (X is 9: SEQ ID NO: 9, the same shall apply hereinafter.) was synthesized. The peptide was synthesized based on the Fmoc solid-phase synthesis method. To measure the binding activity of the peptides, according to the operation manual of the SPR instrument Biacore T200 (GE Healthcare), FGFR1 was immobilized as a ligand to the instrument's sensor chip CMS using the amine coupling method. In addition, to confirm binding to other FGFR species, FGFR2 or FGFR3-immobilized sensor chips were also prepared. Ethanolamine was immobilized as a reference, and the samples were measured as analyte.
All measurements were performed at 25° C. and HBS-EP+ was used as the running buffer. After injecting the running buffer dissolving the peptide into the CMS sensor chip immobilized with various FGFRs (flow rate 30 μl/min, 2 min), the peptide was dissociated by flowing the running buffer for 3 min. The obtained sensorgram was directly curve-fitted with the reaction equation, and the rate constant was calculated by a nonlinear least-squares method. Dissociation constants were calculated by kinetic analysis using Biacore T200 Evaluation Software (GE Healthcare). A 1:1 binding model was used in the analysis.

iPS-hFB [3] = assay: Differentiation induction of iPS cells into cardiomyocytes: RT-qPCR of cardiomyocyte markers cTNT and Actinin; details: Example 4: peptide in combination with bFGF, Day 23; compared to conventional protocol 1
FGFR1 = assay: Phage display selection against FGFR1 with Miseq analysis of the bound phages; assay type: binding
Protocol: The collected phage library was mixed with 100 nM of FGFR3 solution and allowed to react overnight at 4° C. (Table 5: Panning Round 1). After the reaction, the binding phages were captured by magnetic beads modified with protein A, and washed three times with PBS-T, followed by eluting the bound phages with Gly-HCl (pH 2.0). After neutralizing with 2M Tris, the phages were infected to E. coli. After 4 hours of incubation, helper phages were added, and the E. coli were allowed to produce phages overnight. Next, phage solution was prepared from the culture supernatant. The prepared phage solution was mixed with FGFR3 solution and allowed to react overnight at 4° C. (Table 5: Panning Round 2). After the reaction, the bound phages were eluted. Phage solution prepared in the same way was mixed with FGFR3 solution and allowed to react at 4° C. for 1 hour (Table 5: Panning Round 3). After the reaction, the bound phages were eluted. This operation was repeated two more times, and after Panning Round 5, the bound phages were eluted. Note that as the rounds proceeded, the number of washes with PBS-T was increased. (Table 5). The titer of the Output phage in each round was also determined. The titer of phage was determined from the number of colonies obtained by incubating the E. coli TG1 strain contacted with the phage at 37° C. overnight. As shown in FIG. 3<Input phage (Round 5)>, the eluted phage library after panning was subjected to Human IgG Fc-immobilized plate, and negative selection was performed by collecting unbound phages. The phage library was then acted to FGFR1 prepared to concentrations of 100 nM, 10 nM, and 1 nM. Bound phages were then collected. The phagemid DNA of the collected phages was extracted, samples were prepared according to Illumina's protocol for Miseq, and a comprehensive analysis of the phagemid DNA was performed. Among the sequences obtained, 23 sequences with high incidence rates were selected (Table 6).

iPS-hFB [4] = assay: CYP3A4 activity (luciferin-IPA) of hepatocytes induced to differentiate from iPS cells; assay type: cell-based; details: Day 20, luminescence corrected by protein
Protocol: Differentiation of iPS cells was induced in the same manner as in Example 13. After the cells were washed with PBS on Day 20, the medium was exchanged with HCM BulletKit (Lonza) containing 3 μM luciferin-IPA at 1 mL/well. After 1 hour of reaction at 37° C., 100 μL of the supernatant was transferred to a 96-well white plate., and Luciferin Detection Reagent was added at 100 μL/well. After 20 minutes of reaction at room temperature, the luminescence was measured. The cells were also crushed and the luminescence value was corrected by quantifying proteins with TaKaRa BCA Protein Assay Kit (Takara Bio).

iPS-hFB [5] = assay type: cell-based
Protocol: An attempt to apply 100nX to a differentiation induction system from iPS cells to hepatocytes was made. […] Then, cells were seeded in 6-well plates at 1.5×10^5 cells/well. […] The medium was replaced on Day 3 using the same medium. The medium was removed on Day 5 and RPMI1640 supplemented with B-27 Plus Supplement (Thermo), 20 ng/mL BMP4, and 20 ng/mL bFGF was added at 2 mL/well (conventional protocol; FIG. 14, protocol 1). […] Further, as a control group, RPMI1640 supplemented with B-27 Plus Supplement (Thermo), and 20 ng/mL BMP4 was added at 2 mL/well (conventional protocol; FIG. 14, protocol 2). The medium was replaced on Day 8 using the same medium. In all conditions, the medium was removed on Day 10, and RPMI1640 supplemented with B-27 Plus Supplement (Thermo), and 20 ng/mL HGF was added at 2 mL/well. The medium was replaced on Day 12 and Day 14 using the same medium. The medium was exchanged with HCM BulletKit (Lonza) (containing HBM, Ascorbic Acid, BSA-FAF, Hydrocortisone, Transferin, GA-1000, and Insulin) on Day 15 at 2 mL/well. On Day 17 and Day 18, the medium was exchanged with the same medium.

[6] = 0.25 nM peptide, Day 35, compared to control protocol 2 (no bFGF)

For “CAAELAALEAELAALEGVPGDNNGTRGKLYHLKNKLHRLKNAC [100n9]”, the “Nr2f1 gene expression level” value (iPS-hFB [1]; compared to control protocol 2 (no bFGF)) was “significantly increased”, the “Nr2f1 gene expression level” value (iPS-hFB [1]; compared to conventional protocol 1 (bFGF)) was “similar” and the “MAP2 gene expression level” value (iPS-hFB [1]; [6]) was “tended to increase”. The “SYN1 gene expression level” value (iPS-hFB [1]; [6]) was “tended to increase”, the “promotion of / contribution to neural differentiation” value (iPS-hFB [1]; overall, relative to bFGF) was “as effective as conventional bFGF” and the “day on which beating cell clusters were observed” value (iPS-hFB [2]) was ≥ 16 days. The “binding affinity to the FGFR” value (FGFR) was “high binding affinity”, the “gene expression levels (cTNT, ACTN2)” value (iPS-hFB [3]) was “significantly increased” and the “1 nM Num. of reads” value (FGFR1; phage library after panning Round 5, bound to 1 nM FGFR1) was 6403. For the same sequence, the “10 nM Num. of reads” value (FGFR1; phage library after panning Round 5, bound to 10 nM FGFR1) was 7169, the “100 nM Num. of reads” value (FGFR1; phage library after panning Round 5, bound to 100 nM FGFR1) was 6135 and the “1 nM Ranking” value (FGFR1; rank by number of reads, 1 nM FGFR1) was 4. For the same sequence, the “10 nM Ranking” value (FGFR1; rank by number of reads, 10 nM FGFR1) was 3, the “100 nM Ranking” value (FGFR1; rank by number of reads, 100 nM FGFR1) was 3 and the CYP3A4 activity (iPS-hFB [4]; compared to control protocol 2 (BMP4)) was “significantly increased”. For the same sequence, the CYP3A4 activity (iPS-hFB [4]; compared to conventional protocol 1 (BMP4, bFGF)) was “similar” and the “promotion of hepatic differentiation” value (iPS-hFB [5]) was “as effective as or better than conventional bFGF”.
